Test results: PMC10510387, “Targeting Cytotoxic Agents through EGFR-Mediated Covalent Binding and Release” (Journal of Medicinal Chemistry, 2023)
“Also recorded” adds a separate entry of the source. Read-outs that look alike come from different tables or passages of the source. Blank lines part the entries; values can stand above or below the compound they belong to.

How the values were obtained:
[1] = molecular target: T1, WT EGFR (Homo sapiens, UniProt P00533); assay: In vitro TR-FRET assay, WT EGFR; assay type: binding; settings: for WT EGFR pIC50: Table S1, TR FRET, n=1, 2 technical replicates
[2] = tested on: DM EGFR; assay: In vitro TR-FRET assay, DM EGFR; assay type: binding
[3] = tested on: A431 cells; assay: Growth inhibition in adherent cell lines (SRB, 72 h); assay type: cell-based; settings: for GI50: Homo sapiens, A-431, 72 h
Experimental: On day 1, the compounds were diluted to the required concentration in DMEM +10% FBS media, ensuring that the final DMSO concentration was 0.1% once added to cells. […] Cells were then fixed by adding 50% (wt/vol) TCA to each well of the plate and left at 4 °C for 1 h. The plates were then washed thoroughly with water, 100 μL of 0.4% SRB solution was added to the wells, and left at room temperature for 30 min. The plates were rinsed with 1% AcOH and then left to air-dry in a drying cabinet for 1 h. […] The absorbance was read at 570 nm using a FluoStar Omega plate reader.

[4] = molecular target: T1, WT EGFR; assay: Protein mass spectrometry after incubation of compound with EGFR; assay type: binding; settings: for adduct formation with EGFR / release of 5FU from EGFR adduct: 15 μM compound, 4 μM EGFR, 4 hr; for adduct formation with EGFR: ambient temperature; for release of 5FU from EGFR adduct: protein mass spectrometry; for mass increase of adduct after loss of 5FU / mass increase of initial (intact) adduct: relative to apo protein
Experimental: Compounds were suspended in 10 mM in 100% DMSO and were added to 4 μM of EGFR to achieve the final compound concentration of 15 μM in 1% DMSO, in 25 mM Tris pH 8, 150 mM NaCl, 5% Glycerol before incubating at an ambient temperature for 4 hr time prior to analysis.
Following incubation, intact protein masses were determined using an Agilent 6530 Accurate Mass dual AJS/ESI Q-TOF instrument coupled to an Agilent 1260 Infinity II LC system. 1 μL of purified protein (∼1 mg/mL) was injected onto an MS Pac DS-10 Desalter cartridge ((Thermo Fisher Scientific), PN: 089170, 2.1 × 10 mm) for desalting and reversed phase separation at 70 °C. The mobile phase was 0.1% (v/v) formic acid in LC-MS grade water (A) and LC-MS grade acetonitrile (B) with separation performed over 7.5 min. […] Proteins were detected in positive ion mode using electrospray ionization with a nebulizer pressure of 45 psig, a drying gas flow of 5 L/min, and a source gas temperature of 325 °C. A sheath gas temperature of 400 °C, a gas flow of 11 L/min, a capillary voltage of 3500 V, and a nozzle voltage of 2000 V were also used. Mass spectra were acquired using MassHunter Acquisition software (version B.08.00) over a mass range of 100–3000 m/z at a rate of 1 spectra/s and 1000 ms/spectrum in the standard mass range (3200 m/z) at 2 GHz. The instrument had been calibrated over the selected mass range prior to analysis.

[5] = tested on: pEGFR (Tyr1068) in A431 cells; assay: Cellular pEGFR inhibition by HTRF (A431); assay type: cell-based; settings: for IC50: Homo sapiens, A-431, Figure 5a, read-out: pEGFR pIC50 (converted); for pEGFR pIC50: Figure 5a
Experimental: Cells were plated at 20 000 cells per well in 96-well plates and placed at 37 °C with 5% CO2. […] Compound and media were removed from the cells, and then 50 μL of HTRF lysis buffer was added (lysis buffer was diluted from 4× stock to 1× in deionized (DI) water, with 1% blocking agent also added). Cells were lysed on a plate shaker (2000 rpm) for 30 min at room temperature. pEGFR expression was monitored using the Cisbio Phospho-EGFR (Tyr1068) cellular kit (64EG1PEH). Total EGFR expression was monitored using the Cisbio Total EGFR cellular kit (64NG1PEH) as per the manufacturer’s instructions. […] Results were calculated as the ratio of pEGFR/total EGFR and then the percentage of 0 μM control.

[6] = 19F NMR 5FU release study with N-acetyl-L-cysteine methyl ester; assay type: physicochemical; settings: reaction with N-acetyl cysteine
Experimental: Reaction of the model systems with N-acetyl-L-cysteine methyl ester was assessed by ^19F NMR.
Acrylate-5FU conjugate (0.125 M) in d^6-DMSO (0.25 mL) was prepared in an NMR tube. N-Acetyl cysteine methyl ester (1.9 mg, 0.011 mmol) or glutathione (3.4 mg, 0.011 mmol) in d^6-DMSO was prepared. The cysteine/glutathione solution was added to the NMR tube, and the tube was inverted several times. The ^19F NMR was taken immediately for t = 0 measurement. Further measurements were taken at t = 30 min and t = 60 min.

[7] = tested on: EGFR phosphorylation in A431 cells; assay: pEGFR inhibition by Western blot in A431; assay type: cell-based; settings: 4 h
Experimental: Appropriately treated cells were lysed in Phosphosafe extraction buffer combined with cOmplete Protease Inhibitor Cocktail (Merck) prepared as per the manufacturer’s instructions.
Samples were prepared in Eppendorf vials by diluting them to the required concentrations with phosphate-buffered saline (PBS), and the appropriate amount of 4X XT sample buffer was added. This solution was vortexed, centrifuged, then placed at 98 °C for 5 min, and then centrifuged to remove the residue. Migration was performed using a 4–20% Criterion TGX Precast Midi Protein Gel, 18 well, 30 μL (Cat. No. 5671094) placed in a Criterion running tank (Cat. No. 1656001) and also using PowerPac HC high-current power supply (Bio-Rad) electrodes. Nitrocellulose membrane used was an Amersham Protran Premium 0.45 Nitrocellulose membrane (Cat. No. 15269794) and Ponceau S Stain (Sigma-Aldrich Cat. No. p7170).
Primary antibodies raised to EGFR (CST 4267) or pEGFR (CST 3777) were diluted (1:1000) in 5% BSA w/v. Loading control antibodies were prepared in 5% milk w/v with 1 × TBS/T (0.1 v/v) solution at a determined optimum concentration.
Secondary HRP-conjugated antibodies were diluted in 5% milk with w/v in 1 × TBS/T (0.1 v/v) solution at a determined optimum concentration.
Proteins were detected using the Clarity ECL Western blotting substrate (Bio-Rad).

[8] = Compound media stability (LC-MS); assay type: physicochemical; settings: DMEM + 10% FCS, 1.0 μM, 25 h
Experimental: Compound 53 (0.760 mg, 1.51 μmol) was dissolved in DMSO […] and then added to DMEM (Sigma-Aldrich 5796) + 10% FCS media (1.50 mL) such that the final concentration was 1.0 μM. Liquid chromatography-mass spectrometry (LC-MS) analysis was carried out at t = 0, 1, 3, and 25 h.

[9] = Table S1, TR FRET, n=1, 2 technical replicates
[10] = A431 cell viability, 72 h, Figure 6b, single agents and equimolar combination
[11] = A431 cell viability, 72 h, Figure 5c
[12] = WT EGFR, TR-FRET, n > 2, Figure 5a and text

Compound: (S, E)-1-(3-(3-((4-((3-Chloro-4-fluorophenyl)amino)-7-methoxyquinazolin-6-yl)oxy)pyrrolidin-1-yl)-3-oxoprop-1-en-1-yl)-5-fluoropyrimidine-2,4(1H,3H)-dione [compound 50]
WT EGFR pIC50 [1]: 5.9
DM EGFR pIC50 [2, 9]: 6.6

Compound: (E)-1-(3-(4-((4-((3-Chloro-4-fluorophenyl)amino)-7-methoxyquinazolin-6-yl)oxy)piperidin-1-yl)-3-oxoprop-1-en-1-yl)-5-fluoropyrimidine-2,4(1H,3H)-dione [compound 51]
WT EGFR pIC50 [1]: 6.6

GI50 ([3]; A431 cell viability, 72 h, Figure 6a, single agents and equimolar combination): 631 nM
GI50 [3, 10]: 631 nM
Compound: O=c1[nH]cc(F)c(=O)[nH]1 [5-FU, 5-fluorouracil, reference compound]

Compound: (R, E)-1-(3-(3-((4-((3-Chloro-4-fluorophenyl)amino)-7-methoxyquinazolin-6-yl)oxy)pyrrolidin-1-yl)-3-oxoprop-1-en-1-yl)-5-fluoropyrimidine-2,4(1H,3H)-dione [compound 49]
WT EGFR pIC50 [1]: 5.6
DM EGFR pIC50 [2, 9]: 6.4

Compound: 2-Fluoro-4-methoxy-5-((4-(1-methyl-1H-indol-3-yl)pyrimidin-2-yl)amino)phenyl (E)-3-(5-fluoro-2,4-dioxo-3,4-dihydropyrimidin-1(2H)-yl)acrylate [compound 35]
adduct formation with EGFR [4]: evidence of adduct formation
release of 5FU from EGFR adduct [4]: without evidence of the release of 5FU
WT EGFR pIC50 [1]: < 4.0
DM EGFR pIC50 [2, 9]: 5.5

Compound: (E)-1-(3-(3-((4-((3-Chloro-4-fluorophenyl)amino)-7-methoxyquinazolin-6-yl)oxy)azetidin-1-yl)-3-oxoprop-1-en-1-yl)-5-fluoropyrimidine-2,4(1H,3H)-dione [compound 48]
adduct formation with EGFR [4]: covalent adduct formation
release of 5FU from EGFR adduct [4]: without evidence of the release of 5FU
WT EGFR pIC50 [1]: 6.6
DM EGFR pIC50 [2, 9]: 6.7

IC50 [5]: 10 nM
GI50 [3, 11]: 79.4 nM
Compound: COc1cc2ncnc(Nc3ccc(F)c(Cl)c3)c2cc1NC(=O)/C=C/CN1CCCCC1 [compound 2, dacomitinib, reference compound]

Compound: 4-((3-Chloro-4-fluorophenyl)amino)-7-methoxyquinazolin-6-yl (E)-3-(5-fluoro-2,4-dioxo-3,4-dihydropyrimidin-1(2H)-yl)acrylate [compound 53]
time to complete release of 5FU [6]: 1 h
adduct formation with EGFR [4]: two new major adducts
release of 5FU from EGFR adduct [4]: loss of 5FU from the complex
mass increase of adduct after loss of 5FU [4]: 372 Da
mass increase of initial (intact) adduct [4]: 502 Da
EGFR pIC50 [1, 12]: 6.8
pEGFR pIC50 [5]: 7.8
inhibition of EGFR phosphorylation at 1 μM [7]: not at 1 μM
inhibition of EGFR phosphorylation at 10 μM [7]: marked inhibition
pGI50 [3, 11]: 5.3
hydrolysis in cell media [8]: some hydrolysis did occur
release of 5FU in cell media [8]: no observation of the release of 5FU

Compound: (E)-N-(3-((5-Chloro-4-(pyrazolo[1,5-a]pyridin-3-yl)pyrimidin-2-yl)amino)-4-methoxyphenyl)-3-(5-fluoro-2,4-dioxo-3,4-dihydropyrimidin-1(2H)-yl)acrylamide [compound 30]
adduct formation with EGFR [4]: an adduct formed
release of 5FU from EGFR adduct [4]: without 5FU release; also recorded: no evidence of the release of 5FU
mass increase of initial (intact) adduct [4]: 548 Da
WT EGFR pIC50 [1]: 5.7
DM EGFR pIC50 [2]: 6.8

Compound: 3-((4-(1-Methyl-1H-indol-3-yl)pyrimidin-2-yl)amino)-4-nitrophenyl (E)-3-(5-Fluoro-2,4-dioxo-3,4-dihydropyrimidin-1(2H)-yl)acrylate [compound 39]
adduct formation with EGFR [4]: evidence of adduct formation
release of 5FU from EGFR adduct [4]: without evidence of the release of 5FU
WT EGFR pIC50 [1]: < 4.0
DM EGFR pIC50 [2, 9]: 3.7

EGFR pIC50 ([1]; supplementary CSV column): 8.1 +/- 0.82
IC50 [5]: 5010 nM
GI50 [3, 11]: > 10000 nM
GI50 [3, 10]: 10000 nM
Compound: COc1cc2ncnc(Nc3ccc(F)c(Cl)c3)c2cc1OC(=O)/C=C/CN1CCCCC1 [compound 56, 4-((3-Chloro-4-fluorophenyl)amino)-7-methoxyquinazolin-6-yl (E)-4-(piperidin-1-yl)but-2-enoate]
inhibition of EGFR phosphorylation at 1 μM [7]: some inhibition

Compound: (E)-N-(4-((3-Chloro-4-fluorophenyl)amino)-7-methoxyquinazolin-6-yl)-3-(5-fluoro-2,4-dioxo-3,4-dihydropyrimidin-1(2H)-yl)acrylamide [compound 57]
adduct formation with EGFR [4]: clear adduct
release of 5FU from EGFR adduct [4]: negligible release of 5FU
mass increase of adduct after loss of 5FU [4]: 371 Da
mass increase of initial (intact) adduct [4]: 501 Da
EGFR pIC50 [1, 12]: 7.3
pEGFR pIC50 [5]: 5.6
inhibition of EGFR phosphorylation at 10 μM [7]: little inhibition
antiproliferative effect ([3]; A431, 72 h growth inhibition): no antiproliferative effects
pGI50 ([3]; supplementary CSV column): <5.0
